Source: article PMC9184463, “Structural basis of ligand binding modes of human EAAT2” (Nature Communications, 2022)

Tests used:
hEAAT1 = conditions: ref PMID: 7521911; cited from earlier work
hEAAT3 = test system: hEAAT3; set-up: method as in PMID: 7521911; conditions: ref PMID: 7521911; cited from earlier work
hEAAT2 = conditions: ref PMID: 7521911; cited from earlier work
hEAAT2 mutant L467I = biological target: T1, hEAAT2 mutant L467I (Homo sapiens, UniProt P43004, L467I); assay: whole-cell patch-clamp, hEAAT2 mutant L467I in HEK293T cells; format: cell-based; conditions: for glutamate-induced current, normalized (MEAN): L467I, 0 mV
T1 construct: Strep Tag II (N); superfolder GFP (sfGFP) (N); expressed in transfected cells; host or cells: HEK293T
Description: (§1) Human embryonic kidney 293T (HEK293T) cells were cultured in Dulbecco’s Modified Eagle Medium (DMEM, Gibco) media supplemented with 15% (v/v) fetal bovine serum (FBS, PAN-Biotech) at 37 °C with 5% CO2. HEK293T cells were grown in the culture dishes (d = 3.5 cm) (Thermo Fisher Scientific) for 24 h and then 1 μg hEAAT2 wild-type and mutant plasmids for per dishes were used to transiently transfect HEK293T using 0.7 μg Lipofectamine 2000 Reagent (Thermo Fisher Scientific). Cells were analyzed using electrophysiological experiments between 24 and 40 h after transfection at room temperature (21–25 °C).
(§2) Electrophysiological experiments were performed as described previously with a minor modification. External buffer contained 140 mM NaCl, 2 mM MgCl2, 2 mM CaCl2, and 10 mM HEPES (pH = 7.4 with NaOH and osmolarity of ∼310 mosmol L^−1) and while internal pipette solution comprised of 130 mM NaSCN, 2 mM MgCl2, 10 mM EGTA, 10 mM HEPES (pH = 7.4 with NaOH and osmolarity of ∼310 mosmol L^−1) and 10 mM glutamate. 50 mM WAY-213613 stock solutions were prepared in dimethyl sulfoxide (DMSO), followed by dilutions to working concentrations with the above-mentioned external buffer. […] Whole cell patch-clamp experiment recordings were made from isolated GFP-positive HEK293T cells (hEAAT2 wild type and mutants). In all, 3–6 MΩ was used to fire a polished pipette (Sutter Instrument). […] Cells were immersed in the above-mentioned external buffer supplemented with a specified concentration of glutamate or WAY-213613. Glutamate-induced anion current, Na^+-dependent anion leak current and glutamate transport current or WAY-213613 inhibited anion leak currents were recorded using an EPC-10 amplifier (HEKA Electronic) at a 20 kHz sample rate with low pass filter at 5 kHz. All experiments were executed at 0 mV. After the cell current was stabilized, glutamate or WAY-213613 was sustained at the indicated concentrations from external dosing for at least 6 s. Subsequently, the cell was washed away with external buffer to start a new round of applications or end the experiment. The plateau currents were used for the following calculations. For analysis, the data was acquired by PatchMaster program (HEKA Electronic) at 5 s after recording. Nonlinear dose–response relationships were fitted into a Michaelis–Menten-like equation shown as below to obtain the apparent Km and Ki values in the presence of glutamate or WAY-213613.1 I/Imax=Km/i/C+Km/i In this equation, I represent the current at different glutamate or inhibitor concentrations, and Imax represents the maximal current at the saturating concentration of glutamate or inhibitor. [C] represents the concentration of glutamate or inhibitor. Km/i represents the apparent constant.

hEAAT2 mutant S441G = biological target: T2, hEAAT2 mutant S441G (Homo sapiens, UniProt P43004, S441G); assay: whole-cell patch-clamp, hEAAT2 mutant S441G in HEK293T cells; format: cell-based; conditions: 0 mV; for glutamate-induced current, normalized (MEAN): S441G, normalized to maximal current
T2 construct: Strep Tag II (N); superfolder GFP (sfGFP) (N); expressed in transfected cells; host or cells: HEK293T
Description: as §1, §2

hEAAT2 mutant V468I = biological target: T3, hEAAT2 mutant V468I (Homo sapiens, UniProt P43004, V468I); assay: whole-cell patch-clamp, hEAAT2 mutant V468I in HEK293T cells; format: cell-based; conditions: for glutamate-induced current, normalized (MEAN): V468I, 0 mV
T3 construct: Strep Tag II (N); superfolder GFP (sfGFP) (N); expressed in transfected cells; host or cells: HEK293T
Description: as §1, §2

hEAAT2 mutant D475A = biological target: T4, hEAAT2 mutant D475A (Homo sapiens, UniProt P43004, D475A); assay: whole-cell patch-clamp, hEAAT2 mutant D475A in HEK293T cells; format: cell-based
T4 construct: Strep Tag II (N); superfolder GFP (sfGFP) (N); expressed in transfected cells; host or cells: HEK293T
Description: as §1, §2

hEAAT2 mutant I464V = biological target: T5, hEAAT2 mutant I464V (Homo sapiens, UniProt P43004, I464V); assay: whole-cell patch-clamp, hEAAT2 mutant I464V in HEK293T cells; format: cell-based; conditions: for glutamate-induced current, normalized (MEAN): I464V, 0 mV
T5 construct: Strep Tag II (N); superfolder GFP (sfGFP) (N); expressed in transfected cells; host or cells: HEK293T
Description: as §1, §2

hEAAT2 mutant R478A = biological target: T6, hEAAT2 mutant R478A (Homo sapiens, UniProt P43004, R478A); assay: whole-cell patch-clamp, hEAAT2 mutant R478A in HEK293T cells; format: cell-based
T6 construct: Strep Tag II (N); superfolder GFP (sfGFP) (N); expressed in transfected cells; host or cells: HEK293T
Description: as §1, §2

wild-type hEAAT2 = biological target: T7, wild-type hEAAT2 (Homo sapiens, UniProt P43004); assay: whole-cell patch-clamp of hEAAT2-associated anion current, wild-type hEAAT2 in HEK293T cells; format: cell-based
T7 construct: Strep Tag II (N); superfolder GFP (sfGFP) (N); expressed in transfected cells; host or cells: HEK293T
Description: as §1, §2

[1] = 3 μM glutamate, normalized to current at 1000 μM
[2] = 10 μM glutamate, normalized to current at 1000 μM
[3] = 30 μM glutamate, normalized to current at 1000 μM
[4] = 100 μM glutamate, normalized to current at 1000 μM
[5] = 300 μM glutamate, normalized to current at 1000 μM
[6] = 1000 μM glutamate, normalization reference

T6 sequence (P43004 whole entry R478A): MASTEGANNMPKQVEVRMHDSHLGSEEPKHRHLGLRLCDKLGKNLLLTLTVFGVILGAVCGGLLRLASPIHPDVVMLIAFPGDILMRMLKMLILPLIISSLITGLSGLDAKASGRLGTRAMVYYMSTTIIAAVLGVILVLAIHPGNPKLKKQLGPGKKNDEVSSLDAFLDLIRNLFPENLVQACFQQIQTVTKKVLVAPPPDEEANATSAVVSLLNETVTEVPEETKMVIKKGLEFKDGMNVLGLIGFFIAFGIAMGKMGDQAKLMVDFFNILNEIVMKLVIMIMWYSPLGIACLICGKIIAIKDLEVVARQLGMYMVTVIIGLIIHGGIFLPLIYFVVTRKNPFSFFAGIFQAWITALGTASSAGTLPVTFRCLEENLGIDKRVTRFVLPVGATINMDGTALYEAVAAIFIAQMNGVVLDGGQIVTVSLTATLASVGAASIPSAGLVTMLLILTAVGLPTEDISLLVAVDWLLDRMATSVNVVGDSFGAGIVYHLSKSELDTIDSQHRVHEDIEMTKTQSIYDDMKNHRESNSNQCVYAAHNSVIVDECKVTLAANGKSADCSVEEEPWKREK
T7 sequence (P43004 whole entry, the tested form may be a part): as the sequence (P43004 whole entry R478A) above, with A478R counted along it
T1 sequence (P43004 whole entry L467I): as the sequence (P43004 whole entry R478A) above, with L467I, A478R counted along it
T4 sequence (P43004 whole entry D475A): as the sequence (P43004 whole entry R478A) above, with D475A, A478R counted along it
T5 sequence (P43004 whole entry I464V): as the sequence (P43004 whole entry R478A) above, with I464V, A478R counted along it
T2 sequence (P43004 whole entry S441G): as the sequence (P43004 whole entry R478A) above, with S441G, A478R counted along it
T3 sequence (P43004 whole entry V468I): as the sequence (P43004 whole entry R478A) above, with V468I, A478R counted along it

**Q.** For `N[C@@H](CC(=O)O)C(=O)O` [aspartate], which Km (hEAAT1) is on record?
**A.** The Km was 60 µM.

**Q.** What about the Km (hEAAT3) of the same molecule?
**A.** Its Km is 47 µM.

**Q.** And the Km (hEAAT2)?
**A.** Its Km is 54 µM.

**Q.** Which “glutamate-induced current, normalized (MEAN)” value (hEAAT2 mutant L467I; [1]) does the source give for `N[C@@H](CCC(=O)O)C(=O)O` [glutamate] here?
**A.** The value was 0.09492.

**Q.** And the “glutamate-induced current, normalized (MEAN)” value (hEAAT2 mutant L467I; [2])?
**A.** The value was 0.2532.

**Q.** What about the “glutamate-induced current, normalized (MEAN)” value (hEAAT2 mutant L467I; [3]) of the same molecule?
**A.** The value was 0.5328.

**Q.** And the “glutamate-induced current, normalized (MEAN)” value (hEAAT2 mutant L467I; [4])?
**A.** Its value is 0.7948.

**Q.** And the “glutamate-induced current, normalized (MEAN)” value (hEAAT2 mutant L467I; [5])?
**A.** The value was 0.9242.

**Q.** What about the “glutamate-induced current, normalized (MEAN)” value (hEAAT2 mutant L467I; [6]) of the same molecule?
**A.** Its value is 1.

**Q.** What about the “activation of anion current” value (hEAAT2 mutant L467I; L467I mutant, glutamate in external solution) of the same molecule?
**A.** The value was “significantly activate anion current with similar efficacy as that of wild-type hEAAT2”.

**Q.** What about the “glutamate-induced current, normalized (MEAN)” value (hEAAT2 mutant S441G; 0.1 μM glutamate) of the same molecule?
**A.** The value was 0.1494.

**Q.** What about the “glutamate-induced current, normalized (MEAN)” value (hEAAT2 mutant S441G; 0.3 μM glutamate) of the same molecule?
**A.** The value was 0.4931.

**Q.** What about the “glutamate-induced current, normalized (MEAN)” value (hEAAT2 mutant S441G; 1 μM glutamate) of the same molecule?
**A.** The value was 0.73.

**Q.** What about the “glutamate-induced current, normalized (MEAN)” value (hEAAT2 mutant S441G; 3 μM glutamate) of the same molecule?
**A.** The value was 0.9123.

**Q.** And the “glutamate-induced current, normalized (MEAN)” value (hEAAT2 mutant S441G; 10 μM glutamate)?
**A.** The value was 1.

**Q.** And the “glutamate-induced current, normalized (MEAN)” value (hEAAT2 mutant S441G; 30 μM glutamate)?
**A.** The value was 1.038.

**Q.** What about the Km (hEAAT2 mutant S441G; S441G mutant, read-out: apparent Km) of the same molecule?
**A.** Its Km is 400 ± 30 nM.

**Q.** What about the Km (hEAAT1) of the same molecule?
**A.** The Km was 48 µM.

**Q.** What about the Km (hEAAT3) of the same molecule?
**A.** The Km was 62 µM.

**Q.** What about the “glutamate-induced current, normalized (MEAN)” value (hEAAT2 mutant V468I; [1]) of the same molecule?
**A.** The value was 0.1059.

**Q.** And the “glutamate-induced current, normalized (MEAN)” value (hEAAT2 mutant V468I; [2])?
**A.** Its value is 0.2526.

**Q.** What about the “glutamate-induced current, normalized (MEAN)” value (hEAAT2 mutant V468I; [3]) of the same molecule?
**A.** The value was 0.5136.

**Q.** And the “glutamate-induced current, normalized (MEAN)” value (hEAAT2 mutant V468I; [4])?
**A.** Its value is 0.8108.

**Q.** And the “glutamate-induced current, normalized (MEAN)” value (hEAAT2 mutant V468I; [5])?
**A.** Its value is 0.9282.

**Q.** And the “glutamate-induced current, normalized (MEAN)” value (hEAAT2 mutant V468I; [6])?
**A.** Its value is 1.

**Q.** And the “activation of anion current” value (hEAAT2 mutant V468I; V468I mutant, glutamate in external solution)?
**A.** The value was “significantly activate anion current with similar efficacy as that of wild-type hEAAT2”.

**Q.** What about the Km (hEAAT2) of the same molecule?
**A.** Its Km is 97 µM.

**Q.** What about the “glutamate-related current density (MEAN)” value (hEAAT2 mutant D475A; 1mM Glutamate, D475A, 0 mV, Na+ dependent leak current subtracted) of the same molecule?
**A.** The value was 1.113 pA/pF.

**Q.** And the “activation of anion currents” value (hEAAT2 mutant D475A; D475A mutant, glutamate up to 1 mM)?
**A.** Its value is “failed to activate anion currents”.

**Q.** And the “glutamate-induced current, normalized (MEAN)” value (hEAAT2 mutant I464V; [1])?
**A.** The value was 0.1004.

**Q.** And the “glutamate-induced current, normalized (MEAN)” value (hEAAT2 mutant I464V; [2])?
**A.** The value was 0.2675.

**Q.** What about the “glutamate-induced current, normalized (MEAN)” value (hEAAT2 mutant I464V; [3]) of the same molecule?
**A.** Its value is 0.5257.

**Q.** And the “glutamate-induced current, normalized (MEAN)” value (hEAAT2 mutant I464V; [4])?
**A.** Its value is 0.7538.

**Q.** And the “glutamate-induced current, normalized (MEAN)” value (hEAAT2 mutant I464V; [5])?
**A.** Its value is 0.9218.

**Q.** What about the “glutamate-induced current, normalized (MEAN)” value (hEAAT2 mutant I464V; [6]) of the same molecule?
**A.** Its value is 1.

**Q.** And the “activation of anion current” value (hEAAT2 mutant I464V; I464V mutant, glutamate in external solution)?
**A.** The value was “significantly activate anion current with similar efficacy as that of wild-type hEAAT2”.

**Q.** And the “glutamate-related current density (MEAN)” value (hEAAT2 mutant R478A; 1mM Glutamate, R478A, 0 mV, Na+ dependent leak current subtracted)?
**A.** The value was 0.4954 pA/pF.

**Q.** And the “activation of anion currents” value (hEAAT2 mutant R478A; R478A mutant, glutamate up to 1 mM)?
**A.** The value was “failed to activate anion currents”.

**Q.** And the “glutamate-induced current, normalized (MEAN)” value (wild-type hEAAT2; 3 μM glutamate, WT, 0 mV, normalized to current at 1000 μM glutamate)?
**A.** Its value is 0.1101.

**Q.** What about the “glutamate-induced current, normalized (MEAN)” value (wild-type hEAAT2; 10 μM glutamate, WT, 0 mV, normalized to current at 1000 μM glutamate) of the same molecule?
**A.** The value was 0.2265.

**Q.** What about the “glutamate-induced current, normalized (MEAN)” value (wild-type hEAAT2; 30 μM glutamate, WT, 0 mV, normalized to current at 1000 μM glutamate) of the same molecule?
**A.** The value was 0.5388.

**Q.** What about the “glutamate-induced current, normalized (MEAN)” value (wild-type hEAAT2; 100 μM glutamate, WT, 0 mV, normalized to current at 1000 μM glutamate) of the same molecule?
**A.** Its value is 0.751.

**Q.** What about the “glutamate-induced current, normalized (MEAN)” value (wild-type hEAAT2; 300 μM glutamate, WT, 0 mV, normalized to current at 1000 μM glutamate) of the same molecule?
**A.** The value was 0.9307.

**Q.** And the “glutamate-related current density (MEAN)” value (wild-type hEAAT2; 1mM Glutamate, WT, 0 mV, Na+ dependent leak current subtracted)?
**A.** The value was -27.6784 pA/pF.

**Q.** And the “glutamate-induced current, normalized (MEAN)” value (wild-type hEAAT2; 1000 μM glutamate, WT, 0 mV, normalization reference)?
**A.** Its value is 1.

**Q.** And the “effect of substrate on anion leak currents” value (wild-type hEAAT2; wild-type hEAAT2)?
**A.** The value was “increased the amplitudes of anion leak currents”.

**Q.** And the Km (wild-type hEAAT2; wild-type hEAAT2, HEK293T, 0 mV, Michaelis-Menten-like fit, read-out: apparent Km (activation of anion current))?
**A.** The Km was 30 ± 2.5 µM.
